Converted amounts (≈) assume the structure as drawn. Where two headings read alike, the source gives them in different places.
What was measured:
E. Coli 125 = assay: MIC in brain heart infusion (BHI) broth; format: cell-based; settings: Escherichia coli
Description: (§1) Generally twelve 2 fold dilutions of the test compound are employed, with initial concentration of the test drug being in the range of 50 to 200 mcg./ml. The susceptibility (MIC) of the test organism is accepted as the lowest concentration of compound capable of producing complete inhibition of growth as judged by the naked eye. A comparison of the activity of 4"-epi-9-deoxo-9a-methyl-9a-aza-9a-homoerythromycin A (IV) with that of an erythromycin A control is shown in replicate in the Table I.

E. Coli 129 = assay: MIC in brain heart infusion (BHI) broth; format: cell-based; settings: Escherichia coli
Description: as §1

E. Coli 266 = assay: MIC in brain heart infusion (BHI) broth; format: cell-based; settings: Escherichia coli
Description: as §1

E. Coli 470 = assay: MIC in brain heart infusion (BHI) broth; format: cell-based; settings: Escherichia coli, BHI broth, read-out: MIC
Description: as §1

Ent. aerog. 040 = assay: MIC in brain heart infusion (BHI) broth; format: cell-based
Description: as §1

Ent. cloac. 009 = assay: MIC in brain heart infusion (BHI) broth; format: cell-based
Description: as §1

Kleb. oxy. 024 = assay: MIC in brain heart infusion (BHI) broth; format: cell-based
Description: as §1

Kleb. pn. 009 = assay: MIC in brain heart infusion (BHI) broth; format: cell-based
Description: as §1

Kleb. pn. 031 = assay: MIC in brain heart infusion (BHI) broth; format: cell-based
Description: as §1

Neiss. sic. 000 = assay: MIC in brain heart infusion (BHI) broth; format: cell-based
Description: as §1

Past. mult. 001 = assay: MIC in brain heart infusion (BHI) broth; format: cell-based; settings: BHI broth, read-out: MIC
Description: as §1

Prov. strua. 013 = assay: MIC in brain heart infusion (BHI) broth; format: cell-based
Description: as §1

Serr. mar. 017 = assay: MIC in brain heart infusion (BHI) broth; format: cell-based
Description: as §1

Staph. aur. 005 = assay: MIC in brain heart infusion (BHI) broth; format: cell-based
Description: as §1

Staph. aur. 052 = assay: MIC in brain heart infusion (BHI) broth; format: cell-based
Description: as §1

Staph. aur. 400 = assay: MIC in brain heart infusion (BHI) broth; format: cell-based
Description: as §1

Staph. epi 111 = assay: MIC in brain heart infusion (BHI) broth; format: cell-based
Description: as §1

Strep. faec. 006 = assay: MIC in brain heart infusion (BHI) broth; format: cell-based
Description: as §1

Strep. pneumo. 012 = assay: MIC in brain heart infusion (BHI) broth; format: cell-based
Description: as §1

Strep. pyog. 203 = assay: MIC in brain heart infusion (BHI) broth; format: cell-based
Description: as §1

H. influ. 012 = assay: MIC in brain heart infusion (BHI) broth; format: cell-based, Hemophilus influenzae; settings: Haemophilus influenzae
Description: as §1

H. influ. 036 = assay: MIC in brain heart infusion (BHI) broth; format: cell-based, Hemophilus influenzae; settings: Haemophilus influenzae
Description: as §1

H. influ. 038 = assay: MIC in brain heart infusion (BHI) broth; format: cell-based, Hemophilus influenzae; settings: Haemophilus influenzae
Description: as §1

H. influ. 042 = assay: MIC in brain heart infusion (BHI) broth; format: cell-based, Hemophilus influenzae; settings: Haemophilus influenzae
Description: as §1

H. influ. 051 = assay: MIC in brain heart infusion (BHI) broth; format: cell-based, Hemophilus influenzae; settings: Haemophilus influenzae
Description: as §1

H. influ. 073 = assay: MIC in brain heart infusion (BHI) broth; format: cell-based, Hemophilus influenzae; settings: Haemophilus influenzae
Description: as §1

H. influ. 078 = assay: MIC in brain heart infusion (BHI) broth; format: cell-based, Hemophilus influenzae; settings: Haemophilus influenzae
Description: as §1

H. influ. 081 = assay: MIC in brain heart infusion (BHI) broth; format: cell-based, Hemophilus influenzae; settings: Haemophilus influenzae
Description: as §1

[1] = test system: erythromycin A susceptible organisms and Hemophilus influenzae; assay: spectrum of antibacterial activity; format: cell-based
Description: as §1

[2] = oral absorption and half-life in vivo
[3] = microbiological (bioassay) determination of serum levels in rats
Description: Additionally, compound (IV) is tested in vivo by the well-known mouse protection test, or by a microbiological (bioassay) determination of serum levels in a variety of mammals (e.g., mouse, rat, dog).

[4] = 24 h, Day 1, BHI broth, read-out: MIC
[5] = 48 h, Day 2, BHI broth, read-out: MIC

SMILES: CC[C@H]1OC(=O)[C@H](C)[C@@H](O[C@H]2C[C@@](C)(OC)[C@H](O)[C@H](C)O2)[C@H](C)[C@@H](O[C@@H]2O[C@H](C)C[C@H](N(C)C)[C@H]2O)[C@](C)(O)C[C@@H](C)CN(C)[C@H](C)[C@@H](O)[C@]1(C)O [Compound (IV), 4"-epi-9-deoxo-9a-methyl-9a-aza-9a-homoerythromycin A]
- MIC (E. Coli 125; 24 h): 6.25 µg/mL (≈ 8.34 µM)
- MIC (E. Coli 125; 48 h): 6.25 µg/mL (≈ 8.34 µM)
- MIC (E. Coli 129; 24 h): 1.56 µg/mL (≈ 2.08 µM)
- MIC (E. Coli 129; 48 h): 6.25 µg/mL (≈ 8.34 µM)
- MIC (E. Coli 266; 24 h): 3.12 µg/mL (≈ 4.17 µM)
- MIC (E. Coli 266; 48 h): 6.25 µg/mL (≈ 8.34 µM)
- MIC (E. Coli 470; 24 h, Day 1): 0.78 µg/mL (≈ 1.04 µM)
- MIC (E. Coli 470; 48 h, Day 2): 0.78 µg/mL (≈ 1.04 µM)
- MIC (Ent. aerog. 040; 24 h, Day 1): 12.5 µg/mL (≈ 16.7 µM)
- MIC (Ent. aerog. 040; 48 h, Day 2): 12.5 µg/mL (≈ 16.7 µM)
- MIC (Ent. cloac. 009; 24 h, Day 1): 25 µg/mL (≈ 33.4 µM)
- MIC (Ent. cloac. 009; 48 h, Day 2): 25 µg/mL (≈ 33.4 µM)
- MIC (Kleb. oxy. 024; 24 h, Day 1): 12.5 µg/mL (≈ 16.7 µM)
- MIC (Kleb. oxy. 024; 48 h, Day 2): 12.5 µg/mL (≈ 16.7 µM)
- MIC (Kleb. pn. 009; 24 h, Day 1): 12.5 µg/mL (≈ 16.7 µM)
- MIC (Kleb. pn. 009; 48 h, Day 2): 12.5 µg/mL (≈ 16.7 µM)
- MIC (Kleb. pn. 031; 24 h, Day 1): 12.5 µg/mL (≈ 16.7 µM)
- MIC (Kleb. pn. 031; 48 h, Day 2): 12.5 µg/mL (≈ 16.7 µM)
- MIC (Neiss. sic. 000; [4]): 0.2 µg/mL (≈ 0.267 µM)
- MIC (Neiss. sic. 000; 48 h): 0.39 µg/mL (≈ 0.521 µM)
- MIC (Past. mult. 001; 24 h, Day 1): 0.1 µg/mL (≈ 0.134 µM)
- MIC (Past. mult. 001; 48 h, Day 2): 0.1 µg/mL (≈ 0.134 µM)
- MIC (Prov. strua. 013; 24 h, Day 1): 50 µg/mL (≈ 66.8 µM)
- MIC (Prov. strua. 013; 48 h, Day 2): 50 µg/mL (≈ 66.8 µM)
- MIC (Serr. mar. 017; 24 h, Day 1): 50 µg/mL (≈ 66.8 µM)
- MIC (Serr. mar. 017; 48 h, Day 2): 50 µg/mL (≈ 66.8 µM)
- MIC (Staph. aur. 005; [4]): 0.2 µg/mL (≈ 0.267 µM)
- MIC (Staph. aur. 005; 48 h): 0.39 µg/mL (≈ 0.521 µM)
- MIC (Staph. aur. 052; [4]): 0.2 µg/mL (≈ 0.267 µM)
- MIC (Staph. aur. 052; 48 h): 0.39 µg/mL (≈ 0.521 µM)
- MIC (Staph. aur. 400; 24 h): 3.12 µg/mL (≈ 4.17 µM)
- MIC (Staph. aur. 400; [5]): 12.5 µg/mL (≈ 16.7 µM)
- MIC (Staph. epi 111; 24 h, Day 1): 0.1 µg/mL (≈ 0.134 µM)
- MIC (Staph. epi 111; 48 h, Day 2): 0.2 µg/mL (≈ 0.267 µM)
- MIC (Strep. faec. 006; 24 h): 1.56 µg/mL (≈ 2.08 µM)
- MIC (Strep. faec. 006; [5]): 0.78 µg/mL (≈ 1.04 µM)
- MIC (Strep. pneumo. 012; 24 h, Day 1): 0.025 µg/mL (≈ 0.0334 µM)
- MIC (Strep. pneumo. 012; 48 h, Day 2): 0.025 µg/mL (≈ 0.0334 µM)
- MIC (Strep. pyog. 203; 24 h, Day 1): 0.025 µg/mL (≈ 0.0334 µM)
- MIC (Strep. pyog. 203; 48 h, Day 2): 0.025 µg/mL (≈ 0.0334 µM)
- MIC (H. influ. 012; 24 h, Day 1): 0.39 µg/mL (≈ 0.521 µM)
- MIC (H. influ. 012; 48 h, Day 2): 0.39 µg/mL (≈ 0.521 µM)
- MIC (H. influ. 036; 24 h, Day 1): 0.39 µg/mL (≈ 0.521 µM)
- MIC (H. influ. 036; 48 h, Day 2): 0.39 µg/mL (≈ 0.521 µM)
- MIC (H. influ. 038; 24 h): 0.39 µg/mL (≈ 0.521 µM)
- MIC (H. influ. 038; [5]): 0.78 µg/mL (≈ 1.04 µM)
- MIC (H. influ. 042; 24 h, Day 1): 0.39 µg/mL (≈ 0.521 µM)
- MIC (H. influ. 042; 48 h, Day 2): 0.39 µg/mL (≈ 0.521 µM)
- MIC (H. influ. 051; 24 h): 0.39 µg/mL (≈ 0.521 µM)
- MIC (H. influ. 051; [5]): 0.78 µg/mL (≈ 1.04 µM)
- MIC (H. influ. 073; 24 h): 0.39 µg/mL (≈ 0.521 µM)
- MIC (H. influ. 073; [5]): 0.78 µg/mL (≈ 1.04 µM)
- MIC (H. influ. 078; 24 h, Day 1): 0.39 µg/mL (≈ 0.521 µM)
- MIC (H. influ. 078; 48 h, Day 2): 0.39 µg/mL (≈ 0.521 µM)
- MIC (H. influ. 081; 24 h): 0.39 µg/mL (≈ 0.521 µM)
- MIC (H. influ. 081; [5]): 0.78 µg/mL (≈ 1.04 µM)
- spectrum of antibacterial activity [1]: relatively broad spectrum of antibacterial activity which includes erythromycin A susceptible organisms and, in addition, fully incorporates the major respiratory pathogen Hemophilus influenzae
- half-life in vivo ([2]; in vivo): extraordinarily long half-life in vivo
- oral absorption ([2]; oral): high oral absorption
- absorption after oral dosage [3]: exceptionally well absorbed
- serum levels ([3]; oral): exceptionally high and long lasting serum levels

Source: patent publication US4526889A, “Epimeric azahomoerythromycin A derivative, intermediates and method of use” (Pfizer Inc., priority 1984, dated 1985)
